Here are results for one molecule from patent US12011447B2, “Pharmaceutical composition for treating thyroid cancer comprising tyrosine kinase activity inhibitor as active ingredient” (Kyungpook National University Industry-Academic Cooperation …, priority 2017, dated 2024).

Data set [1] is described as follows: R-luc BLI signal indicating cell viability in dual-reporter cells. The data set is classed as cell-based, human. The conditions noted are these: human; 8505C-PNIS-PCMV cells, 24 hours, screening; read-out: BLI signal activity of R-luc (cell viability) compared to vehicle group. An excerpt: (§1) A pNIS-FL2-TurboFP635-pCMV-Rluc recombinant vector expressing reporter genes driven by dual promoters was constructed by Cosmo Genetech, Ltd. (Republic of Korea) using a pNIS-FL2-TurboFP635 vector and a pcDNA3.1/Hygro(+) vector. Specifically, in order to screen a substance that increases the activity of NIS promoter, Firefly-luciferase2(F-luc2) and TurboFP635 were included downstream (clockwise) of the NIS promoter. In order count cells, CMV promoter and Renilla-luciferase (R-luc) were included upstream (counterclockwise) of the NIS promoter. The pNIS-FL2-TurboFP635 vector was provided from Dr. Abhijit De (ACTREC, India), and the pcDNA3.1/Hygro(+) vector was purchased from invitrogen (USA).
(§2) The 8505C cell line was transfected with the pNIS-FL2-TurboFP635-pCMV-Rluc recombinant vector using the Fu-GENE HD solution according to the protocols of the manufacturer (Promega). […]
(§3) To examine transcriptional regulation of the NIS (sodium iodide symporter) promoter, the 8505C-PNIS-PCMV cells were treated with a tyrosine kinase inhibitor (hereinafter referred to as TKI) library for 24 hours. Next, D-luciferin (150 μg/ml) was added to the cells, and the activity of NIS promoter was measured by IVIS Lumina III (Perkin-Elmer, Wellesley, Mass., USA). To normalize the NIS promoter activity to cell number, 10 μg/ml of h-coelenterazine was added to the cells, and the activity of R-luc was measured. […]

In a further data set the test system is 8505C-PNIS-PCMV cells. The description is as above. The conditions noted are these: FIG. 7B. In kind it is cell-based, human.
Description: as §1, §2, §3

Data set [2] deals with anaplastic thyroid cancer xenograft (8505C-PNIS-PCMV). Briefly: Tumor growth inhibition in xenograft mice (tumor size, R-luc BLI). The data set is classed as in vivo, Balb/c nude mice. Here is the method: Female Balb/c nude mice, 5.5-week old with an average weight of 18.9±0.37 g (mean±standard deviation [SD]), were purchased (Hamamatsu, Shizuoka, Japan). The mice were acclimated under specific pathogen-free conditions for one week before starting the experiment, and were maintained at a temperature of 20 to 25° C. and a relative humidity of 40 to 70%. To establish anaplastic thyroid cancer xenograft mouse models, 8505C-PNIS-PCMV s (5×10^6) were mixed with Matrigel (Corning) at a ratio of 1:1 and injected subcutaneously into the right flank region of each mouse.
In addition, in order to evaluate the effect of TKI-0266 administration on the treatment of thyroid cancer, mice for use in the experiment were divided into four groups (n=5): the vehicle group; the ^131I-administered group (injected intraperitoneally with 1 mCi Na-^131I on day 2 of the experiment; the TKI-0266-administered group (injected intraperitoneally with 50 mg/kg of TKI-0266 for 5 days); and the group co-administered with ^131I and TKI-0266 (injected intraperitoneally with 50 mg/kg of TKI-0266 for 5 days, and injected intravenously with 1 mCi Na-^131I on day 2; n=5). To measure the degree of tumor growth, h-coelenterazine (15 μg/ml) was administered to the mice by intravenous injection, and then the R-luc activity was monitored by BLI every 5 days.

Data set [3] deals with TPO, TSHR, Tg, TTF-1 and Pax-8. The data set is described as follows: Western blot of thyroid-specific proteins. The conditions noted are these: 8505C-PNIS-PCMV cells. In kind it is cell-based, human. Here is the method: 8505C-PNIS-PCMV cells were treated with TKI-0266 and incubated for 24 hours, and then the cell pellet was washed twice with cold phosphate-buffered saline (hereinafter referred to as PBS). An RIPA buffer (Thermo Fisher Scientific, USA) containing a protease/phosphatase cocktail inhibitor kit (Thermo Fisher Scientific) was added to the cell pellet to lyse the cells. The lysed cells were gently vortexed three times at a time interval, and centrifuged at 13000xg at 4° C. to isolate a soluble protein. The isolated protein was quantified using a BCA protein assay kit (Thermo Fisher Scientific).
Equal amounts of proteins were separated by 10% SDS-PAGE (sodium dodecyl sulfate-polyacrylamide gel electrophoresis), and then the proteins were transferred to PVDF membranes (Millipore, USA). The PVDF membrane was blocked with 3% BSA (bovine serum albumin) in TBS containing Tween-20 (TBS-T) for 1 hour, and incubated with primary antibodies in 0.5% BSA overnight at 4° C. The next day, the PVDF membrane was incubated with HRP-conjugated secondary antibodies at room temperature for 1 hour, and washed three times with TBS-T. The protein bands were visualized using ECL detection reagent (GE Healthcare Life Sciences, Italy) and the Fusion FX chemiluminescence analyzer system (Vilber lourmat, France). […]
In general terms: A western blot detects proteins with antibodies after separation by electrophoresis.

By viability is commonly meant a per cent measure of how many cells are alive, often set against a control. Regarding `Cc1cc2c(N(C)C3CCCCC3)ncnc2s1` [TKI-0266], the viability at 24 h in data set [1] is about 75%. Further, in the data set on 8505C-PNIS-PCMV cells, the “BLI signal activity of R-luc, vehicle group vs treated group” value was “did not significantly differ”. The “tumor growth rate compared to vehicle group and 131I alone group” value in data set [2] (TKI-0266 alone, 50 mg/kg for 5 days) is listed as “slow tumor growth rate”. The “tumor growth inhibitory effect among the four experimental groups” value in data set [2] (co-administered with 131I and TKI-0266) was “best tumor growth inhibitory effect”. In addition, the R-luc signal intensity result in data set [2] (co-administered with 131I and TKI-0266, day 6 after administration) is on record as “decreased”; in data set [2] (co-administered with 131I and TKI-0266, day 11 after administration), “restored”. In addition, the “tumor size on days 6 and 11” value in data set [2] (single agent administration) is given as “increase”. In data set [3], the “expression of TPO, TSHR, Tg, TTF-1 and Pax8 proteins” value is recorded as “increased”. Moreover, in data set [3] (FIG. 12), the “expression of Tg, TPO, Pax8, TSHR, NIS and TTF-1 as treatment concentration increased” value is “increased”.
